PMC12287757, “Exploring the inhibitory effect and mechanism of 3,4,5-trihydroxybiphenyl on α-glucosidase: an integrated experimental and computational approach” (Frontiers in Pharmacology, 2025)

Molecular target: α-glucosidase
Experiment: SPR (Biacore 8K, CM5 chip, immobilized enzyme); also p-NPG inhibition (IC50 […], Ki […], non-competitive, reversible) and CD
Assay type: binding, Saccharomyces cerevisiae

- Kd: 39.1 µM
Structure (SMILES): Oc1cc(-c2ccccc2)cc(O)c1O [THB, 3,4,5-Trihydroxybiphenyl]
